Our source for the IC50 values is patent publication US10414763B2 (CANCER RESEARCH TECHNOLOGY LIMITED, priority 2014, dated 2019).

The target of the test is T1, full-length human PKCι (Homo sapiens, UniProt P41743).
T1 construct: Recombinant, full-length human PKCι expressed in Sf21 insect cells is also commercially available; purchased EMD Millipore; host or cells: Sf21 insect cells (baculovirus)
T1 sequence (P41743 1-596): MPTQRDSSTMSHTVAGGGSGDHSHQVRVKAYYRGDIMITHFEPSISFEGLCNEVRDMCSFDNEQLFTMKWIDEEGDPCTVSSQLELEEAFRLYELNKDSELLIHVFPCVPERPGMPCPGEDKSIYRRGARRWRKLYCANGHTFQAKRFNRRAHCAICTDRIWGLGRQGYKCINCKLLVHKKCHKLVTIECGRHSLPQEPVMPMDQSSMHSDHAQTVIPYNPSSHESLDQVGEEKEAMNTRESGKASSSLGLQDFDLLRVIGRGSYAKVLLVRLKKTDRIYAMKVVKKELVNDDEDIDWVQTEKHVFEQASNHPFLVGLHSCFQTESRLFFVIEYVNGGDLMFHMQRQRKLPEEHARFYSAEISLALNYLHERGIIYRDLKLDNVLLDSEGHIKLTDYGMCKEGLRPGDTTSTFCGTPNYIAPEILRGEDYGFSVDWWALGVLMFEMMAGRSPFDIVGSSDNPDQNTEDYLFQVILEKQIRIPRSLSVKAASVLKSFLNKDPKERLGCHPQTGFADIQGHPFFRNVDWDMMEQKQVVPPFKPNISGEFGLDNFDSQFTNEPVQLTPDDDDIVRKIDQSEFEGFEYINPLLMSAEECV
Briefly: PKCι IC50 IMAP fluorescence polarisation assay, full-length enzyme, 150 μM ATP. The class given is biochemical. The note with it: read-out: IC50 in IMAP assay against full length PKCi at 150 μM ATP. A digest of the protocol:
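IMAP fluorescence polarisation kinase assay: 15 pM baculovirus-expressed human PKCiota with 100 nM FAM-pseudosubstrate peptide and 150 μM ATP, 1 h at 25 °C. IMAP detection reagent then 2 h at 25 °C before FP measurement. Inhibition referenced to no-compound and no-enzyme controls for IC50 fitting.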
Regarding `CN(c1nc(-c2ccnc3[nH]c4ccccc4c23)nc2cncc(C(F)(F)F)c12)C1CC(N)C(O)C1` (centres unmarked) [Example 220, 2-Amino-4-{methyl-[2-(9H-pyrido[2,3-b]indol-4-yl)-5-trifluoromethyl-pyrido[3,4-d]pyrimidin-4-yl]-amino}-cyclopentanol], the 50% inhibitory concentration (IC50) is < 100 nM.

Regarding `CN(c1nc(-c2ccnc3[nH]c(-c4cccnc4)cc23)nc2cncc(C3CC3)c12)C1CCNCC1(C)C` (centres unmarked) [Example 61, [5-Cyclopropyl-2-(2-pyridin-3-yl-1H-pyrrolo[2,3-b]pyridin-4-yl)-pyrido[3,4-d]pyrimidin-4-yl]-(3,3-dimethyl-piperidin-4-yl)-methyl-amine], the 50% inhibitory concentration (IC50) is < 100 nM.

For the compound `CN(c1nc(-c2ccnc3[nH]c4ccccc4c23)nc2cncc(C3CCC3)c12)C1CCC(N)C1` (centres unmarked) [Example 78, N-[5-Cyclobutyl-2-(9H-pyrido[2,3-b]indol-4-yl)-pyrido[3,4-d]pyrimidin-4-yl]-N-methyl-cyclopentane-1,3-diamine], the 50% inhibitory concentration (IC50) was < 100 nM.

Take `CC1(C)CNCC[C@@H]1Nc1nc(-c2ccnc(Nc3nc4ccc(F)cc4o3)c2)nc2cncc(C3CCC3)c12` [Example 338, N-[4-[5-Cyclobutyl-4-[[(4S)-3,3-dimethyl-4-piperidyl]amino]pyrido [3,4-d]pyrimidin-2-yl]-2-pyridyl]-6-fluoro-1,3-benzoxazol-2-amine]: the IC50 was < 100 nM.

Take `CC1(C)CNCCC1Nc1nc(-c2ccnc(Nc3c(F)cccc3F)c2)nc2cncc(C3CCC3)c12` (centres unmarked) [Example 93, {5-Cyclobutyl-2-[2-(2,6-difluoro-phenylamino)-pyridin-4-yl]-pyrido[3,4-d]pyrimidin-4-yl}-(3,3-dimethyl-piperidin-4-yl)-amine]: the IC50 was < 100 nM.

With `Clc1ccc(Cl)c(-c2cc3c(-c4nc(N5CCC6NCCCC65)c5c(C6CC6)cncc5n4)ccnc3[nH]2)c1` (centres unmarked) [Example 142, 5-Cyclopropyl-2-[2-(2,5-dichloro-phenyl)-1H-pyrrolo[2,3-b]pyridin-4-yl]-4-(octahydro-pyrrolo [3,2-b]pyridin-1-yl)-pyrido[3,4-d]pyrimidine], the IC50 is < 100 nM.

As to `O[C@H]1CNCC[C@H]1Nc1nc(-c2ccnc(Nc3nc(F)ccc3F)c2)nc2cncc(C3CCC3)c12` (racemic) [Example 381, rac-(3S,4R)-4-{5-Cyclobutyl-2-[2-(3,6-difluoro-pyridin-2-ylamino)-pyridin-4-yl]-pyrido[3,4-d]pyrimidin-4-ylamino}-piperidin-3-ol], the IC50 is < 100 nM.

Consider `N[C@H]1C[C@@H](Nc2nc(-c3ccnc4[nH]c5ccccc5c34)nc3cncc(C4CCC4)c23)C1` [Example 121, cis-[5-Cyclobutyl-2-(9H-pyrido[2,3-b]indol-4-yl)-pyrido[3,4-d]pyrimidin-4-yl]-cyclobutane-1,3-diamine], for which the half-inhibitory concentration (IC50) is < 100 nM.

With `CN(c1nc(-c2ccnc3[nH]c(C(C)(C)C)cc23)nc2cncc(C3CCC3)c12)C1CCNCC1` [Example 213, [2-(2-tert-Butyl-1H-pyrrolo[2,3-b]pyridin-4-yl)-5-cyclobutyl-pyrido[3,4-d]pyrimidin-4-yl]-methyl-piperidin-4-yl-amine], the IC50 is < 100 nM.

As to `O[C@]12CCN(c3nc(-c4ccnc(Nc5ncn(Cc6ccccc6)n5)c4)nc4cncc(C5CC5)c34)[C@H]1CCNC2` (racemic) [Example 240, rac-(3aS,7aS)-1-{2-[2-(1-Benzyl-1H-1,2,4-triazol-3-ylamino)-pyridin-4-yl]-5-cyclopropyl-pyrido[3,4-d]pyrimidin-4-yl}-octahydro-pyrrolo[3,2-c]pyridin-3a-ol], the 50% inhibitory concentration (IC50) is < 100 nM.

On to `CC1(C)CNCCC1Nc1nc(-c2ccnc(Nc3ncn(Cc4ccccc4)n3)c2)nc2cncc(C3CC3)c12` (racemic) [Example 237, rac-{2-[2-(1-Benzyl-1H-1,2,4-triazol-3-ylamino)-pyridin-4-yl]-5-cyclopropyl-pyrido[3,4-d]pyrimidin-4-yl}-(3,3-dimethyl-piperidin-4-yl)-amine], for which the IC50 is < 100 nM.
